From patent publication US10130676B2, “Therapeutic peptides for cerebrovascular diseases” (Prime Bio-Drug Development Limited, priority 2015, dated 2018) come the findings set out here.

Ends that are not written are not given here.

Data set [1] concerns PC12 cells. Briefly: PC12 cell survival under hypoglycemic, hypoxic or hypoglycemic-hypoxic conditions (MTT). The conditions noted are these: for protective effect on PC12 from cell death under hypoglycemic and hypoxic conditions: 10 ug/ml for each peptide, 24 h; for protective effect against cell death induced by hypoxia / protective effects against cytotoxicity induced by hypoxia or by (hypoglycemia+hypoglycemia): peptide used individually; for protective effects against cytotoxicity induced by hypoxia or by (hypoglycemia+hypoglycemia): conditions as printed.
Protocol: PC12 cells were propagated and cultured as described above. For hypoglycemic condition, 125 μM Cobaltous Chloride (CoCl2, Sigma, USA) was added into the culture media when PC12 cells were in monolayer for further 24 h incubation as described. For induction of hypoglycemia, culture media was changed to glucose-free Eagle's medium when PC12 grew to monolayer for additional 24 h incubation. For hypoglycemic and hypoxic conditions, PC12 cells were cultured in glucose-free Eagle's media with addition of 125 μM CoCl2. After 24 h, cells were harvested and subject to MTT assay.
Data were expressed as mean±standard error (SE) and multiple comparisons were evaluated by the analysis of variance and Neuman-Keuls test. Differences were considered significant at P<0.05. Neurological deficit data were evaluated by the nonparametric Mann-Whitney test.

Data set [2] deals with PC12 cells. In words: PC12 cell survival upon exposure to H2O2 (MTT). The following applies: 10 ug/ml for each peptide; 200 μM H2O2, 24 h. It is filed as cell-based, rat. As for the experimental part: To examine cell survival upon exposure to H2O2, PC12 cells were grown to confluence in 96 well plate and the medium was changed to serum-free medium containing 200 μM H2O2 (final volume 100 μl) for 24 h. […] After 24 h incubation, 100 μL MTT (final concentration 0.5 mg/ml) was added for additional 4 h incubation, and the cell survival was subsequently assessed by absorbance at 540 nm under a Fluostar microplate reader (BMG, Germany).
(§1) Differences were considered significant at P<0.05.

The nature of data set [3]: In vivo distribution of Cy5.5-conjugated peptides after i.v. injection (IVIS optical imaging). Set-up: species or system C57B/L6 mice. The conditions noted are these: for fluorescent intensity detected in the brain: 15 and 30 minutes after injection (FIG. 12); for fluorescent intensity detected in the spinal cord: 30 and 60 minutes after injection (FIG. 13). An excerpt: The C57B/L6 mice (6˜8 week-old, female) were purchased from National Laboratory Animal Center, Taiwan. For optical imaging, animals were anesthetized by 2% isoflurane gas mixed with oxygen and intravenous injection (i.v.) of Cy5.5-conjugated peptide 1 or Cy5.5-conjugated peptide 5 (35 nmole/per mouse). After administration the mice were placed prone or supine in a dark box and a photographic image was first acquired at low light (exposure time: 5 seconds). At indicated time points after administration of probes, fluorescent signals were obtained using a CCD camera thermoelectrically cooled to −70° C. (Xenogen—IVIS® Spectrum Imaging System, Xenogen Technology). The photon integration period was 1-2 sec.

The subject of data set [4] is PC12 cells. In words: PC12 cell survival upon exposure to L-glutamic acid (MTT). It is filed as cell-based, rat. The conditions noted are these: 10 ug/ml for each peptide; 1 mM L-glutamic acid. As for the experimental part: PC12 cells were obtained from the Chinese Academy of Medical Sciences, Beijing, China. To examine cell survival upon exposure to L-glutamic acid, PC12 cells were grown to confluence in 96 well plate in serum-free RPMI-1640. […] After 15-min incubation, medium was changed to serum-free RPMI-1640. After 24 h incubation, 100 μL MTT (final concentration 0.5 mg/ml) was added for additional 4 h incubation, and the cell survival was subsequently assessed by absorbance at 540 nm under a Fluostar microplate reader (BMG Germany).
as §1

The nature of data set [5]: Circular dichroism (CD) of the peptide in PBS. It is filed as physicochemical. The following applies: 50 μM in PBS. As for the experimental part: (§2) Peptide-5 was dissolved in series of solution with different pH value and stood for 3 days. Adequate amount of each resulting solution was analyzed by HPLC (Agilent 1100 series) using a Nucleodur Pyramid C18 column (250 mm×4.6 mm, 5 μm) and gradient elution (0 min: 0.1% TFA in H2O; 10 min: 0.1% TFA in MeOH; 15 min: 0.1% TFA in MeOH) with 0.2 mL/min flow. The signals were monitored by UV detector at 220 nm wavelength. The sample collected in the stability test was also analyzed by MALDI-TOF Mass (Bruker Daltonics, Autoflex III) with 2,5-dihydroxybenzoic acid (DHB) as matrix. Furthermore, the portion respond to the signal at 7.8 min were collected and subject to MALDI-MS analysis. Peptide-5 was also prepared 50 μM in PBS and recorded from circular dichroism (Jasco, J-810).

The nature of data set [6]: Stability test in solutions of different pH value (HPLC, MALDI-TOF). It is filed as physicochemical. The following applies: pH 2.0 to 8.5, 3 days, HPLC UV 220 nm. As for the experimental part: as §2

As to DEAQETAVSSH-OH [Peptide 1], in data set [1], the “protective effect on PC12 from cell death under hypoglycemic and hypoxic conditions” value is given as “had the protective effect as well”; the “protective effect against cell death induced by hypoxia” value is “some protective effect”; the “protective effects against cytotoxicity induced by hypoxia or by (hypoglycemia+hypoglycemia)” value is “no protective effects”. Besides, the “protective effect on H2O2-treated neural cells (cell survival)” value in data set [2] was “a degree of protective effect”. In data set [3], the “fluorescent intensity detected in the brain” value is “high fluorescent intensity” and the “fluorescent intensity detected in the spinal cord” value is “high fluorescent intensity”. Also, the “protective effect on L-glutamic-acid-treated PC12 cells” value in data set [4] is reported as “a degree of protective effect”.
DEAQETAVSSHEQD-OH [Peptide 5]: in data set [1], the “protective effect on PC12 from cell death under hypoglycemic and hypoxic conditions” value is reported as “had the protective effect as well”; the “protective effect against cell death induced by hypoxia” value is recorded as “some protective effect”; the “protective effects against cytotoxicity induced by hypoxia or by (hypoglycemia+hypoglycemia)” value is listed as “no protective effects”. In addition, the “stability by CD (circular dichroism)” value in data set [5] is “extremely stable”. For the same substance, in data set [2], the “protective effect on H2O2-treated neural cells (cell survival)” value is on record as “a degree of protective effect”. Also, in data set [3], the “fluorescent intensity detected in the brain” value is listed as “high fluorescent intensity” and the “fluorescent intensity detected in the spinal cord” value is “high fluorescent intensity”. In addition, the “protective effect on L-glutamic-acid-treated PC12 cells” value in data set [4] is reported as “a degree of protective effect”. Moreover, the “stability in solution with various pH value” in data set [6] is given as “stable, even in a very acidic environment”.
